Measured values taken from patent US20260022142A1, “MACROCYCLIC IMMUNOMODULATORS” (Bristol-Myers Squibb Company, priority 2022, published 2026).
Bridge positions count the residues as written; N and C are the ends. Square brackets hold non-standard residues; d marks the D form. Peptide text beside a SMILES is read from it. * marks the point of attachment. Bip = N[C@@H](Cc1ccc(-c2ccccc2)cc1)C(=O)O; Phe(3-Me) = Cc1cccc(C[C@H](N)C(=O)O)c1; Cha = N[C@@H](CC1CCCCC1)C(=O)O; hSer = N[C@@H](CCO)C(=O)O; Carboxymethyl = O=C(O)C*; Orn = NCCC[C@H](N)C(=O)O; Aun = NCCCCCCCCCCC(=O)O; Dab = NCC[C@H](N)C(=O)O; Dap = NC[C@H](N)C(=O)O

Biological target: T1, PD-1/PD-L1 interaction (PE-labeled human PD-L1-Ig binding to Jurkat cell line over-expressing human PD-1) (Homo sapiens, UniProt Q15116)
T1 construct: expressed in transfected cells; host or cells: Jurkat
T1 sequence (Q15116 25-288): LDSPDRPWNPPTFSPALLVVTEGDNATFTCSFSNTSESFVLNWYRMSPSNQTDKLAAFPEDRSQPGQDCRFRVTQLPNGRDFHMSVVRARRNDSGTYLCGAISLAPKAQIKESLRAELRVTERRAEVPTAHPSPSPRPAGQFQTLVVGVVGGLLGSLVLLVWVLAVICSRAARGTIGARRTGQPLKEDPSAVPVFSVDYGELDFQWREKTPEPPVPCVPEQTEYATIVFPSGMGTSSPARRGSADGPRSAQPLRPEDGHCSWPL
Assay: Jurkat-PD-1 Cell Binding High-Content Screening Assay (CBA)
Assay type: cell-based
Details: Jurkat cell line over-expressing human PD-1; PE-labeled PD-L1-Ig 20 nM final; read-out: Jurkat hPD1-PDL1 IC50
Method in brief: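 Binding of fluorescent PD-L1-Ig (phycoerythrin on Ig tag, 20 nM final, 1 h) measured by high-content imaging of fixed, Hoechst-counterstained Jurkat-hPD-1 cells. Compound added 2 h at 37° C beforehand, in DMEM with 10% fetal calf serum.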

Question: With `Cc1cccc(C[C@@H]2NC(=O)[C@H](CC(=O)O)NC(=O)[C@H](Cc3ccc(OCC(=O)O)cc3)NC(=O)[C@H](CCCNC(=N)N)NC(=O)CSC[C@@H](C(=O)N[C@@H](CCN)C(=O)NCCCCCCCCCCC(=O)O)NC(=O)[C@H](CO)NC(=O)[C@H](C(C)C)NC(=O)[C@H](CC3CCCCC3)NC(=O)[C@H](CCN)NC(=O)[C@@H](CC(C)C)NC(=O)[C@H](CCCN)NC(=O)[C@H](Cc3ccc(OCC(=O)O)cc3)NC(=O)[C@H](Cc3ccc(-c4ccccc4)cc3)NC(=O)[C@H](Cc3ccc(OCC(=O)O)cc3)NC2=O)c1` [Compound 2083] ({CH2CO}-RY(Carboxymethyl)D[Phe(3-Me)]Y(Carboxymethyl)[Bip]Y(Carboxymethyl)[Orn][dL][Dab][Cha]VSC[Dab][Aun]-OH; thioether N-14) as the compound, how does the IC50 read?
Answer: The IC50 was 8.3 nM.

Question: `Cc1cccc(C[C@@H]2NC(=O)[C@H](CC(=O)O)NC(=O)[C@H](Cc3ccc(OCC(=O)O)cc3)NC(=O)[C@H](CN)NC(=O)CSC[C@@H](C(=O)N[C@@H](CCN)C(=O)NCCCCCCCCCCC(=O)O)NC(=O)[C@H](CO)NC(=O)[C@H](C(C)C)NC(=O)[C@H](CC3CCCCC3)NC(=O)[C@H](CCN)NC(=O)[C@@H](CC(C)C)NC(=O)[C@H](CCCN)NC(=O)[C@H](Cc3ccc(OCC(=O)O)cc3)NC(=O)[C@H](Cc3ccc(-c4ccccc4)cc3)NC(=O)[C@H](Cc3ccc(OCC(=O)O)cc3)NC2=O)c1` [Compound 2084] ({CH2CO}-[Dap]Y(Carboxymethyl)D[Phe(3-Me)]Y(Carboxymethyl)[Bip]Y(Carboxymethyl)[Orn][dL][Dab][Cha]VSC[Dab][Aun]-OH; thioether N-14) was tested. Which IC50 did it give?
Answer: The IC50 was 12.6 nM.

Question: With `Cc1cccc(C[C@@H]2NC(=O)[C@H](CC(=O)O)NC(=O)[C@H](Cc3ccc(OCC(=O)O)cc3)NC(=O)[C@H](CCCNC(=N)N)NC(=O)CSC[C@@H](C(=O)N[C@@H](CCN)C(=O)NCCCCCCCCCCC(=O)O)NC(=O)[C@H]([C@@H](C)O)NC(=O)[C@H](C(C)C)NC(=O)[C@H](CC3CCCCC3)NC(=O)[C@H](CCN)NC(=O)[C@@H](CC(C)C)NC(=O)[C@H](CCCN)NC(=O)[C@H](Cc3ccc(OCC(=O)O)cc3)NC(=O)[C@H](Cc3ccc(-c4ccccc4)cc3)NC(=O)[C@H](Cc3ccc(OCC(=O)O)cc3)NC2=O)c1` [Compound 2085] ({CH2CO}-RY(Carboxymethyl)D[Phe(3-Me)]Y(Carboxymethyl)[Bip]Y(Carboxymethyl)[Orn][dL][Dab][Cha]VTC[Dab][Aun]-OH; thioether N-14) as the compound, how does the IC50 read?
Answer: The IC50 was 8.6 nM.

Question: For `Cc1cccc(C[C@@H]2NC(=O)[C@H](CC(=O)O)NC(=O)[C@H](Cc3ccc(OCC(=O)O)cc3)NC(=O)[C@H]([C@@H](C)O)NC(=O)CSC[C@@H](C(=O)N[C@@H](CCN)C(=O)NCCCCCCCCCCC(=O)O)NC(=O)[C@H]([C@@H](C)O)NC(=O)[C@H](C(C)C)NC(=O)[C@H](CC3CCCCC3)NC(=O)[C@H](CCN)NC(=O)[C@@H](CC(C)C)NC(=O)[C@H](CCCN)NC(=O)[C@H](Cc3ccc(OCC(=O)O)cc3)NC(=O)[C@H](Cc3ccc(-c4ccccc4)cc3)NC(=O)[C@H](Cc3ccc(OCC(=O)O)cc3)NC2=O)c1` [Compound 2086] ({CH2CO}-TY(Carboxymethyl)D[Phe(3-Me)]Y(Carboxymethyl)[Bip]Y(Carboxymethyl)[Orn][dL][Dab][Cha]VTC[Dab][Aun]-OH; thioether N-14), which IC50 is on record?
Answer: The IC50 was 10.2 nM.

Question: `Cc1cccc(C[C@@H]2NC(=O)[C@H](CC(=O)O)NC(=O)[C@H](Cc3ccc(OCC(=O)O)cc3)NC(=O)[C@H](CN)NC(=O)CSC[C@@H](C(=O)N[C@@H](CCN)C(=O)NCCCCCCCCCCC(=O)O)NC(=O)[C@H]([C@@H](C)O)NC(=O)[C@H](C(C)C)NC(=O)[C@H](CC3CCCCC3)NC(=O)[C@H](CCN)NC(=O)[C@@H](CC(C)C)NC(=O)[C@H](CCN)NC(=O)[C@H](Cc3ccc(OCC(=O)O)cc3)NC(=O)[C@H](Cc3ccc(-c4ccccc4)cc3)NC(=O)[C@H](Cc3ccc(O)cc3)NC2=O)c1` [Compound 2087] ({CH2CO}-[Dap]Y(Carboxymethyl)D[Phe(3-Me)]Y[Bip]Y(Carboxymethyl)[Dab][dL][Dab][Cha]VTC[Dab][Aun]-OH; thioether N-14) was tested. Which IC50 did it give?
Answer: The IC50 was 15.1 nM.

Question: For `Cc1cccc(C[C@@H]2NC(=O)[C@H](CC(=O)O)NC(=O)[C@H](Cc3ccc(OCC(=O)O)cc3)NC(=O)[C@H](CN)NC(=O)CSC[C@@H](C(=O)N[C@@H](CCCN)C(=O)NCCCCCCCCCCC(=O)O)NC(=O)[C@H]([C@@H](C)O)NC(=O)[C@H](C(C)C)NC(=O)[C@H](CC3CCCCC3)NC(=O)[C@H](CCN)NC(=O)[C@@H](CC(C)C)NC(=O)[C@H](CCN)NC(=O)[C@H](Cc3ccc(OCC(=O)O)cc3)NC(=O)[C@H](Cc3ccc(-c4ccccc4)cc3)NC(=O)[C@H](Cc3ccc(O)cc3)NC2=O)c1` [Compound 2088] ({CH2CO}-[Dap]Y(Carboxymethyl)D[Phe(3-Me)]Y[Bip]Y(Carboxymethyl)[Dab][dL][Dab][Cha]VTC[Orn][Aun]-OH; thioether N-14), which IC50 is on record?
Answer: Its IC50 is 14.8 nM.

Question: How did the IC50 turn out when `Cc1cccc(C[C@@H]2NC(=O)[C@H](CC(=O)O)NC(=O)[C@H](Cc3ccc(OCC(=O)O)cc3)NC(=O)[C@H](Cc3ccc(OCC(=O)O)cc3)NC(=O)CSC[C@@H](C(=O)N[C@@H](CCN)C(=O)NCCCCCCCCCCC(=O)O)NC(=O)[C@H](CO)NC(=O)[C@H](C(C)C)NC(=O)[C@H](CC3CCCCC3)NC(=O)[C@H](CCN)NC(=O)[C@@H](CC(C)C)NC(=O)[C@H](CCCN)NC(=O)[C@H](Cc3ccc(OCC(=O)O)cc3)NC(=O)[C@H](Cc3ccc(-c4ccccc4)cc3)NC(=O)[C@H](C(C)C)NC2=O)c1` [Compound 2089] ({CH2CO}-Y(Carboxymethyl)Y(Carboxymethyl)D[Phe(3-Me)]V[Bip]Y(Carboxymethyl)[Orn][dL][Dab][Cha]VSC[Dab][Aun]-OH; thioether N-14) was run?
Answer: The IC50 was 43.8 nM.

Question: `Cc1cccc(C[C@@H]2NC(=O)[C@H](CC(=O)O)NC(=O)[C@H](Cc3ccc(OCC(=O)O)cc3)NC(=O)[C@H](CN)NC(=O)CSC[C@@H](C(=O)N[C@@H](CCN)C(=O)NCCCCCCCCCCC(=O)O)NC(=O)[C@H]([C@@H](C)O)NC(=O)[C@H](C(C)C)NC(=O)[C@H](CC3CCCCC3)NC(=O)[C@H](CCN)NC(=O)[C@@H](CC(C)C)NC(=O)[C@H](CCCN)NC(=O)[C@H](Cc3ccc(O)cc3)NC(=O)[C@H](Cc3ccc(-c4ccccc4)cc3)NC(=O)[C@H](Cc3ccc(OCC(=O)O)cc3)NC2=O)c1` [Compound 2090] ({CH2CO}-[Dap]Y(Carboxymethyl)D[Phe(3-Me)]Y(Carboxymethyl)[Bip]Y[Orn][dL][Dab][Cha]VTC[Dab][Aun]-OH; thioether N-14) was tested. Which IC50 did it give?
Answer: The IC50 was 18.4 nM.

Question: Which IC50 does the source give for `Cc1cccc(C[C@@H]2NC(=O)[C@H](CC(=O)O)NC(=O)[C@H](Cc3ccc(OCC(=O)O)cc3)NC(=O)[C@H](CN)NC(=O)CSC[C@@H](C(=O)N[C@@H](CCN)C(=O)NCCCCCCCCCCC(=O)O)NC(=O)[C@H](CO)NC(=O)[C@H](C(C)C)NC(=O)[C@H](CC3CCCCC3)NC(=O)[C@H](CCN)NC(=O)[C@@H](CC(C)C)NC(=O)[C@H](CCCN)NC(=O)[C@H](Cc3ccc(O)cc3)NC(=O)[C@H](Cc3ccc(-c4ccccc4)cc3)NC(=O)[C@H](Cc3ccc(OCC(=O)O)cc3)NC2=O)c1` [Compound 2091] ({CH2CO}-[Dap]Y(Carboxymethyl)D[Phe(3-Me)]Y(Carboxymethyl)[Bip]Y[Orn][dL][Dab][Cha]VSC[Dab][Aun]-OH; thioether N-14) here?
Answer: The IC50 was 26.1 nM.

Question: Which IC50 does the source give for `Cc1cccc(C[C@@H]2NC(=O)[C@H](CC(=O)O)NC(=O)[C@H](Cc3ccc(OCC(=O)O)cc3)NC(=O)[C@H]([C@@H](C)O)NC(=O)CSC[C@@H](C(=O)N[C@@H](CCN)C(=O)NCCCCCCCCCCC(=O)O)NC(=O)[C@H]([C@@H](C)O)NC(=O)[C@H](C(C)C)NC(=O)[C@H](CC3CCCCC3)NC(=O)[C@H](CCN)NC(=O)[C@@H](CC(C)C)NC(=O)[C@H](CCCN)NC(=O)[C@H](Cc3ccc(O)cc3)NC(=O)[C@H](Cc3ccc(-c4ccccc4)cc3)NC(=O)[C@H](Cc3ccc(OCC(=O)O)cc3)NC2=O)c1` [Compound 2092] ({CH2CO}-TY(Carboxymethyl)D[Phe(3-Me)]Y(Carboxymethyl)[Bip]Y[Orn][dL][Dab][Cha]VTC[Dab][Aun]-OH; thioether N-14) here?
Answer: The IC50 was 25.1 nM.

Question: With `Cc1cccc(C[C@@H]2NC(=O)[C@H](CC(=O)O)NC(=O)[C@H](Cc3ccc(OCC(=O)O)cc3)NC(=O)[C@H]([C@@H](C)O)NC(=O)CSC[C@@H](C(=O)N[C@@H](CCN)C(=O)NCCCCCCCCCCC(=O)O)NC(=O)[C@H](CO)NC(=O)[C@H](C(C)C)NC(=O)[C@H](CC3CCCCC3)NC(=O)[C@H](CCN)NC(=O)[C@@H](CC(C)C)NC(=O)[C@H](CCCN)NC(=O)[C@H](Cc3ccc(OCC(=O)O)cc3)NC(=O)[C@H](Cc3ccc(-c4ccccc4)cc3)NC(=O)[C@H](Cc3ccc(O)cc3)NC2=O)c1` [Compound 2093] ({CH2CO}-TY(Carboxymethyl)D[Phe(3-Me)]Y[Bip]Y(Carboxymethyl)[Orn][dL][Dab][Cha]VSC[Dab][Aun]-OH; thioether N-14) as the compound, how does the IC50 read?
Answer: Its IC50 is 23.2 nM.

Question: For `Cc1cccc(C[C@@H]2NC(=O)[C@H](CC(=O)O)NC(=O)[C@H](Cc3ccc(OCC(=O)O)cc3)NC(=O)[C@H](CCCNC(=N)N)NC(=O)CSC[C@@H](C(=O)N[C@@H](CCN)C(=O)NCCCCCCCCCCC(=O)O)NC(=O)[C@H](CCO)NC(=O)[C@H](C(C)C)NC(=O)[C@H](CC3CCCCC3)NC(=O)[C@H](CCN)NC(=O)[C@@H](CC(C)C)NC(=O)[C@H](CCCN)NC(=O)[C@H](Cc3ccc(OCC(=O)O)cc3)NC(=O)[C@H](Cc3ccc(-c4ccccc4)cc3)NC(=O)[C@H](Cc3ccc(OCC(=O)O)cc3)NC2=O)c1` [Compound 2094] ({CH2CO}-RY(Carboxymethyl)D[Phe(3-Me)]Y(Carboxymethyl)[Bip]Y(Carboxymethyl)[Orn][dL][Dab][Cha]V[hSer]C[Dab][Aun]-OH; thioether N-14), which IC50 is on record?
Answer: The IC50 was 6.6 nM.
